{"source": "patent US20090022712A1", "about": "“Compositions and Methods for Inhibiting Leukocyte Function” (UNIVERSITY OF VIRGINIA PATENT FOUNDATION, priority 2006, published 2009)", "key": {"PMNs": {"tested_on": "PMNs", "test": "PMN oxidative burst (SOD-inhibitable reduction of cytochrome c)", "type": "cell-based, human", "settings": "TNF-α-primed adherent PMNs; peptide 20 μg/ml, dhCB 1 μg/ml", "description": "Oxidative burst of adherent PMNs was quantified by measuring the superoxide dismutase (SOD)-inhibitable reduction of cytochrome c as described (67). Briefly, PMNs (1.5×10^6/ml in HBSS-0.1% human serum albumin) were incubated in polypropylene tubes (1 hour; 37° C.) in a shaking water bath with or without the PAK peptide (20 μg/ml). PMNs were transferred to a fibrinogen-coated 96 well tissue culture plate. Cytochrome c (1.44 mg/ml) and catalase (0.062 mg/ml) (both Sigma) were added to wells with or without TNF-alpha (10 U/ml). Optical density was measured at indicated times against matched controls with SOD at 550 nm. Some PMNs were treated with dihydrocytochalasin B (dhCB) (1 μg/ml) to disrupt cell spreading on the surface (68). These samples served as negative control."}, "[1]": {"test": "In vivo distribution of the PAK inhibitory peptide (flow cytometry)", "settings": "for uptake of peptide by blood neutrophils: 12 hours before sample", "method": "Six hours after injection, PAK-positive cells were identified by flow cytometry and their expression of CD31 and CD45 was determined. In additional experiments, mice inhaled LPS after an intraperitoneal injection of the fluorescent PAK peptide. Twelve hours later, PMNs were identified in blood, lungs, and BAL by their expression of CD45, GR-1, and 7/4 and investigated for their peptide uptake. In some experiments, lungs from these mice were fixed for confocal microscopy."}, "[2]": {"tested_on": "LPS-induced PMN migration into the lung", "test": "Murine model of acute lung injury: LPS-induced PMN trafficking in the lung", "settings": "application of the peptide in mice in vivo", "method": "Wild type male C57B1/6 mice were obtained from Jackson Labs (Bar Harbor, Me.). […] Mice were eight to twelve weeks of age. Up to four mice were exposed to aerosolized LPS in a custom-built cylindrical chamber (20×9 cm) connected to an air nebulizer (MicroAir, Omron Healthcare, Vernon Hills, Ill.). […] Control mice were exposed to saline aerosol.\nPMN recruitment into the different compartments of the lung pulmonary vasculature, interstitium, alveolar airspace) was assessed as described (81). […] After 5 minutes, mice were euthanized and non-adherent PMN were removed from the pulmonary vasculature by flushing 10 ml of PBS at 25 cm H20 through the spontaneously beating right ventricle. BAL was withdrawn and lungs were removed, minced, and digested in the presence of excess unlabeled anti-GR-1 to prevent possible binding of the injected antibody to extravascular PMN. A cell suspension was prepared by passing the digested lungs through a 70 μm cell strainer (BD Falcon, Bedford, Mass.). Total cells in BAL and lung were counted and percentage of PMNs determined by flow cytometry. […] In the lung, the expression of GR-1 was used to distinguish intravascular (CD45+7/4+GR-1^+) from interstitial (CD45+7/4+GR-1^−) PMNs, which were not reached by the injected antibody 82."}, "adaptor protein Nck": {"molecular_target": "adaptor protein Nck (UniProt P16333)", "test": "cell-based or functional assay"}}, "note": "Where a SMILES comes first, the peptide text is derived from it.", "data": [{"molecule": "C=C1[C@@H](C)[C@H]2[C@H](Cc3ccccc3)NC(=O)[C@]23OC(=O)CC[C@H](O)CCC[C@@H](C)C/C=C/[C@H]3[C@@H]1O", "note": "[dihydrocytochalasin B]", "values": [{"measurement": "adhesion-induced oxidative burst (superoxide production)", "setting": "PMNs", "result": "reduced"}]}, {"molecule": "CSCC[C@H](NC(=O)[C@@H](NC(=O)[C@H](CO)NC(=O)[C@@H](NC(=O)[C@H](CC(N)=O)NC(=O)[C@H](CCCNC(=N)N)NC(=O)[C@H](CCSC)NC(=O)[C@@H]1CCCN1C(=O)[C@@H]1CCCN1C(=O)[C@H](C)NC(=O)[C@@H]1CCCN1C(=O)[C@@H]1CCCN1C(=O)[C@H](CCCCN)NC(=O)CNC(=O)[C@H](CCCNC(=N)N)NC(=O)[C@H](CCCNC(=N)N)NC(=O)[C@H](CCCNC(=N)N)NC(=O)[C@H](CCC(N)=O)NC(=O)[C@H](CCCNC(=N)N)NC(=O)[C@H](CCCNC(=N)N)NC(=O)[C@H](CCCCN)NC(=O)[C@H](CCCCN)NC(=O)[C@H](CCCNC(=N)N)NC(=O)CNC(=O)[C@@H](N)Cc1ccc(O)cc1)[C@@H](C)O)[C@@H](C)O)C(=O)O", "note": "[tat-PAK peptide] (H-YGRKKRRQRRRGKPPAPPMRNTSTM-OH; N-terminus and C-terminus assumed)", "values": [{"measurement": "PMNs in the BAL containing peptide", "setting": "[1]; i.v. 1 mg, 12 h, LPS", "result": "almost all neutrophils found in the BAL are non-fluorescent"}, {"measurement": "PMNs in the lung containing peptide", "setting": "[1]; i.v. 1 mg, 12 h, LPS", "result": "one-third"}, {"measurement": "uptake of peptide by blood neutrophils", "setting": "[1]; i.v. 1 mg", "result": "taken up by neutrophils"}, {"measurement": "uptake of peptide by blood neutrophils", "setting": "[1]; i.v. 1 mg, listed as PAK peptide", "result": "most PMNs are PAK peptide+"}, {"measurement": "share of peptide-positive lung cells that are CD45 positive", "setting": "[1]; intraperitoneal, six hours after injection, lung cell suspension", "result": 80, "unit": "%"}, {"measurement": "adverse side effects", "setting": "[2]", "result": "no apparent adverse side effects"}]}, {"molecule": "tat-PAK peptide (inhibitory PAK peptide; first proline-rich domain of PAK fused to the HIV TAT transduction sequence)", "values": [{"measurement": "F-actin content in CXCL1-stimulated human PMNs (flow cytometry)", "setting": "adaptor protein Nck", "result": 30, "unit": "fold"}]}]}
